Laboratory results taken from ChEMBL document CHEMBL5385907, “Proline-Hinged α-Helical Peptides Sensitize Gram-Positive Antibiotics, Expanding Their Physicochemical Properties to Be Used as Gram-Negative Antibiotics” (J Med Chem, 2024).
≈ marks a conversion by molar mass, not a printed value. Calls of active or inactive are those of the source. The calls are words filed in the database; no cut-off is given here. Residues, ends and D or L forms follow the SMILES beside them.

Assays:
[1] = Hydrophobicity of the compound assessed as retention time by reversed-phase HPLC analysis; type: physicochemical
Klebsiella pneumoniae [2] = test: Antibacterial activity against Klebsiella pneumoniae ATCC 700603 assessed as inhibition of bacterial growth incubated for 18 hrs by two fold serial dilution assay; type: functional
Lipopolysaccharide (LPS) = test: Displacement of BODIPY-TR-cadaverine from Escherichia coli O128:B12 LPS assessed as effective dose incubated for 1 hr by fluorescence microplate reader assay
Escherichia coli [3] = test: Antibacterial activity against Escherichia coli ATCC 25922 assessed as inhibition of bacterial growth incubated for 18 hrs by two fold serial dilution assay; type: functional
Acinetobacter baumannii [4] = test: Antibacterial activity against Acinetobacter baumannii ATCC 17978 assessed as inhibition of bacterial growth incubated for 18 hrs by two fold serial dilution assay; type: functional
[5] = Hemolytic activity in human blood assessed as hemolysis incubated for 6 hrs by microplate reader analysis; type: toxicity, tissue-based
[6] = Clearance in CD1 mouse at 10 mg/kg,iv administration measured upto 1 hr by LC-MS/MS analysis; type: ADME, organism-based; conditions: in vivo
[7] = AUClast in Sprague-Dawley rat at 3 mg/kg,iv administration measured upto 24 hr by LC-MS/MS analysis; type: ADME, organism-based; design: time < 24 hrs, dose 3 mg/kg, route iv; conditions: in vivo
[8] = Toxicity in male Sprague-Dawley rat assessed as reduction in body weight at 60 mg/kg,iv administration observed on day 14 relative to control; type: organism-based; design: scale not given: the % may be the effect or the level left; conditions: in vivo, 336 h, time 14 day
[9] = AUClast in CD1 mouse at 1 mg/kg,iv administration measured upto 1 hr by LC-MS/MS analysis; type: ADME, organism-based; design: time < 1 hrs, dose 1 mg/kg, route iv; conditions: in vivo
Escherichia coli [10] = test: (§1) Potentiation of rifampicin induced antibacterial activity against NDM1-producing carbapenem-resistant Escherichia coli infected CD1 mouse sepsis model assessed as reduction in bacterial colony forming unit in blood at 25 mg/kg,SC administrated after 2 hrs of post-infection in presence of rifampicin; type: functional
[11] = Clearance in Sprague-Dawley rat at 3 mg/kg,iv administration measured upto 24 hr by LC-MS/MS analysis; type: ADME, organism-based; conditions: in vivo
[12] = Nephrotoxicity in Sprague-Dawley rat assessed as […] in creatinine level at 30 mg/kg,iv administration for 1 hr and measured after 25 hrs; type: toxicity, organism-based; conditions: in vivo, 26 h
Klebsiella pneumoniae [13] = test: Antibacterial activity against Klebsiella pneumoniae ATCC 700603 assessed as inhibition of bacterial growth incubated for 18 hrs in presence of rifampicin with calcium and Mg2+ broth media by two fold serial dilution assay; type: functional, organism-based
[14] = Toxicity in female Sprague-Dawley rat assessed as reduction in body weight at 20 to 60 mg/kg,iv administration observed on day 2; type: organism-based; conditions: in vivo, 48 h, dose 20-60 mg/kg, time 2 day
[15] = Toxicity in female Sprague-Dawley rat assessed as reduction in body weight at 20 to 60 mg/kg,iv administration observed on day 4; type: organism-based; conditions: in vivo, 96 h, dose 20-60 mg/kg, time 4 day
[16] = Toxicity in male Sprague-Dawley rat assessed as no observed adverse effect level at iv administration and observed on day 14; type: organism-based; conditions: in vivo, time 14 day
[17] = Clearance in CD1 mouse at 1 mg/kg,iv administration measured upto 1 hr by LC-MS/MS analysis; type: ADME, organism-based; conditions: in vivo
Acinetobacter baumannii [18] = test: Antibacterial activity against Acinetobacter baumannii ATCC 17978 assessed as inhibition of bacterial growth incubated for 18 hrs in presence of rifampicin with calcium and Mg2+ broth media by two fold serial dilution assay; type: functional, organism-based
[19] = Toxicity in male Sprague-Dawley rat assessed as reduction in body weight at 40 mg/kg,iv administration observed on day 14 relative to control; type: organism-based; design: scale not given: the % may be the effect or the level left; conditions: in vivo, 336 h, time 14 day
[20] = Nephrotoxicity in Sprague-Dawley rat assessed as increase in blood urea nitrogen level at 30 mg/kg,iv administration for 1 hr and measured after 25 hrs; type: toxicity, organism-based; conditions: in vivo, 26 h
[21] = Cytotoxicity against human HK-2 cells assessed as cell growth inhibition incubated for 24 hrs by WST-1 reagent microplate reader assay; type: toxicity, cell-based
[22] = Toxicity in male Sprague-Dawley rat assessed as reduction in body weight at 20 mg/kg,iv administration observed on day 14; type: organism-based; conditions: in vivo, 336 h, time 14 day
[23] = Volume of distribution in Sprague-Dawley rat at 3 mg/kg,iv administration measured upto 24 hr by LC-MS/MS analysis; type: ADME, organism-based; conditions: in vivo
Escherichia coli [24] = test: as §1, with “in lung tissue” for “in blood”, “after 6” for “after 2”; type: functional, organism-based
[25] = Toxicity in male Sprague-Dawley rat assessed as reduction in body weight at 20 mg/kg,iv administration and observed on day 2; type: organism-based; conditions: in vivo, 48 h, time 2 day
[26] = AUClast in CD1 mouse at 10 mg/kg,iv administration measured upto 1 hr by LC-MS/MS analysis; type: ADME, organism-based; design: time < 1 hrs, dose 10 mg/kg, route iv; conditions: in vivo
Escherichia coli [27] = test: Antibacterial activity against Escherichia coli ATCC 25922 assessed as fold increase in bacterial growth inhibition incubated for 1 hr by propidium iodide staining based fluorescence assay; type: functional
Escherichia coli [28] = test: Antibacterial activity against Escherichia coli ATCC 25922 assessed as inhibition of bacterial growth incubated for 18 hrs in presence of rifampicin with calcium and Mg2+ broth media by two fold serial dilution assay; type: functional, organism-based
Escherichia coli [29] = test: as §1, with “lung tissue” for “blood”; type: functional, organism-based
Escherichia coli [30] = test: Potentiation of rifampicin induced antibacterial activity against NDM1-producing carbapenem-resistant Escherichia coli infected CD1 mouse sepsis model assessed as reduction in bacterial colony forming unit in blood at 25 mg/kg,SC administrated after 6 hrs of post-infection in presence of rifampicin; type: functional
[31] = Clearance in CD1 mouse at 3 mg/kg,iv administration measured upto 1 hr by LC-MS/MS analysis; type: ADME, organism-based; conditions: in vivo
[32] = Toxicity in female Sprague-Dawley rat assessed as no observed adverse effect level at iv administration and observed on day 14; type: organism-based; conditions: in vivo, time 14 day
[33] = AUClast in CD1 mouse at 3 mg/kg,iv administration measured upto 1 hr by LC-MS/MS analysis; type: ADME, organism-based; design: dose 3 mg/kg, time < 1 hrs, route iv; conditions: in vivo
Cell membrane = test: Induction of outer membrane permeabilization in Escherichia coli ATCC 25922 assessed as increase in fluorescence by measuring fold change by NPN-dye based fluorescence analysis; type: subcellular

CCCCCCCC(=O)N[C@@H](CCCCN)C(=O)N[C@@H](CCCCN)C(=O)N[C@@H](C)C(=O)N[C@@H](C)C(=O)N[C@@H](CCCCN)C(=O)N[C@@H](C)C(=O)N[C@@H](C)C(=O)N[C@@H](CCCCN)C(=O)N[C@@H](CCCCN)C(=O)N1CCC[C@H]1C(=O)N[C@@H](C)C(=O)N[C@@H](CCCCN)C(=O)N[C@@H](C)C(=O)N[C@@H](C)C(=O)N[C@@H](CCCCN)C(N)=O (HELM PEPTIDE1{[CCCCCCCC(=O)[*:2]].K.K.A.A.K.A.A.K.K.P.A.K.A.A.K.[am]}$$$$V2.0)
Retention_time [1]: 13.7 min | MIC (Klebsiella pneumoniae [2]): > 80 µM | ED50 (Lipopolysaccharide (LPS)): inactive | MIC (Escherichia coli [3]): > 80 µM | MIC (Acinetobacter baumannii [4]): > 80 µM | MHC10 [5]: > 160 µM

CCCCCCCC(=O)N[C@@H](CCCCN)C(=O)N[C@@H](CCCCN)C(=O)N[C@@H](C)C(=O)N[C@@H](CC(C)C)C(=O)N[C@@H](CCCCN)C(=O)N[C@@H](CC(C)C)C(=O)N[C@@H](C)C(=O)N[C@@H](CCCCN)C(=O)N[C@@H](CCCCN)C(=O)N1CCC[C@H]1C(=O)N[C@@H](CC(C)C)C(=O)N[C@@H](CCCCN)C(=O)N[C@@H](CC(C)C)C(=O)N[C@@H](CC(C)C)C(=O)N[C@@H](CCCCN)C(N)=O (HELM PEPTIDE1{[CCCCCCCC(=O)[*:2]].K.K.A.L.K.L.A.K.K.P.L.K.L.L.K.[am]}$$$$V2.0)
clearance [6]: 190 mL/min/kg | Retention_time [1]: 18.1 min | MIC (Klebsiella pneumoniae [2]): > 80 µM | AUClast [7]: 246 ng·h/mL | Activity [8]: 9% | AUClast [9]: 88.9 ng·h/mL | Activity (Escherichia coli [10]): >4 log10CFU | clearance [11]: 192 mL/min/kg | Activity [12]: 0.28 mg/dL | Activity (Klebsiella pneumoniae [13]): inactive | Activity [14]: Toxic | Activity [15]: Non-Toxic | MIC (Escherichia coli [3]): > 80 µM | NOAEL at 336 h [16]: 20 mg/kg | clearance [17]: 218 mL/min/kg | MIC (Acinetobacter baumannii [4]): 20 µM (≈ 36.9 µg/mL) | Activity (Acinetobacter baumannii [18]): inactive | Activity [19]: 9% | Activity [20]: 19 mg/dL | IC50 at 24 h [21]: 86.9 µM | Activity [22]: Non-Toxic | Vd [23]: 3.07 L/kg | Activity (Escherichia coli [24]): Active | Activity [25]: Toxic | AUClast [26]: 941 ng·h/mL | fold change (FC) (Escherichia coli [27]): 10 | Activity (Escherichia coli [28]): inactive | Activity (Escherichia coli [29]): Active | Activity (Escherichia coli [30]): >4 log10CFU | clearance [31]: 182 mL/min/kg | MHC10 [5]: > 160 µM | NOAEL at 336 h [32]: 60 mg/kg | AUClast [33]: 263 ng·h/mL | fold change (FC) (Cell membrane): 10
